{"source": "patent US20060276393A1", "about": "“Novel compositions for preventing and treating neurodegenerative and blood coagulation disorders” (Sirtris Pharmaceuticals, Inc., priority 2005, published 2006)", "key": {"C. elegans": {"test_system": "C. elegans", "assay": "C. elegans lifespan", "type": "in vivo", "conditions": "N2 worms, E. coli as food", "method": "Thus, the presence of resveratrol in the growth media of C. elegans extends their lifespan.\nBristol N2 (Caenorhabditis Genetics Center) was used as the wild-type strain. The sir-2.1 mutant strain was generated by backcrossing VC199 (sir-2.1(ok434)) to N2 four times. Cultures were grown on standard NGM media and maintained on E. coli strain OP50. For the lifespan assays, synchronized animals were transferred to treatment plates as young adults (2 d after hatching, day 0 of assay), and were transferred to fresh treatment plates every 2 days for the first 6 to 8 days of the assay. […] For some lifespan trials, heat-killed OP50 were used as a food source. OP50 cultures were heated to 65° C. for 30 minutes, then pelleted and resuspended in 1/10 volume in S Basal supplemented with 10 mM MgSO4. In all assays, worms were monitored daily for mortality by gently probing with a platinum pick. Assays were performed at 24° C. To assay worm feeding rates, worms at the indicated stages were placed on treatment plates (no FUdR) for 4-5 hours, then videoed for 1 minute using a Pixelink PL-662 camera. The frame rate was slowed and the pumping rate of the pharynx was counted. To assay fecundity, gravid hermaphrodites (5 per plate, raised from synchronized L1s on normal or treatment plates) were allowed to lay eggs on their respective media for 5 hours, and the total number of eggs was counted."}, "[1]": {"target": "T1, SIRT1 deacetylase (BIOMOL) (Homo sapiens, UniProt Q96EB6)", "T1 construct": "purchased BIOMOL", "T1 sequence (Q96EB6 1-747)": "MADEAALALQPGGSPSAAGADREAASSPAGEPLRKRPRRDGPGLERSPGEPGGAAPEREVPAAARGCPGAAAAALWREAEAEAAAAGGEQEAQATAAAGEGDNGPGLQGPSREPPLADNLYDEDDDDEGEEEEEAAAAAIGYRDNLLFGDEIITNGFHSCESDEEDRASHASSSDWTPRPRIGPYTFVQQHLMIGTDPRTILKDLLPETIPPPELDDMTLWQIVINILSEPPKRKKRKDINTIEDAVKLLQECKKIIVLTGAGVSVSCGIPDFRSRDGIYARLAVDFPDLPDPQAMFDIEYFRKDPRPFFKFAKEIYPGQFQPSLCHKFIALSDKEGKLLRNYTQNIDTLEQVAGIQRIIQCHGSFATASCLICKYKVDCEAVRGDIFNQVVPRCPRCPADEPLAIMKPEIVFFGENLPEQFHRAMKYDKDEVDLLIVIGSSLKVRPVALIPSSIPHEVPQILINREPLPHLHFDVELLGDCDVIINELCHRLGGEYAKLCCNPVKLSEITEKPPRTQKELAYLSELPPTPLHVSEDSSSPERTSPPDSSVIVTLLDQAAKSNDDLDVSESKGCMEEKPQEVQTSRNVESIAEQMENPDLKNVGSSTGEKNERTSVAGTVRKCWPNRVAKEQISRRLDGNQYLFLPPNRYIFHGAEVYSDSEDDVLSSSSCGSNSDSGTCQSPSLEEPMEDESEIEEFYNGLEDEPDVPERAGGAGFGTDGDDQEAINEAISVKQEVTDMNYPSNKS", "assay": "High-throughput SIRT1 screening protocol (ICCB library)", "type": "biochemical", "conditions": "positive controls; 200 μM NAD+, 5 μM Fluor de Lys-SIRT1; resveratrol 50 μM", "method": "The reaction mixture contains (final): 0.5 units/reaction SIRT1 deacetylase (BIOMOL); 200 μM NAD^+; 5 μM Fluor de Lys-SIRT1 substrate (BIOMOL); buffer (25 mM Tris/Cl, pH 8.0, 137 mM NaCl, 2.7 mM KCl, 1 mM MgCl2, and 1 mg/ml BSA). In addition, a reaction mixture containing no enzyme was made so that each well receiving compound has a corresponding “no enzyme control” well. Reactions were performed in black 384 well plates (NUNC) in a final volume of 25 μl/well.\nThe reactions were started by combining enzyme and substrate in a reaction mixture immediately prior to aliquoting in plates (or substrate only for “no enzyme control” plates). Mixture were aliquoted to plates using Biotek μfill (Biotek Instruments). Control mixtures were manually added to designated wells. A library compound was added at a desired concentration by pin transfer to both “with enzyme” and “no enzyme” plates. Compounds were added in at least triplicate (with enzyme reaction in duplicate and no enzyme controls) at a final concentration of roughly 50 μM. The plates were incubated at 37° C for 30-60 minutes. Then 25 μl of 1× Developer II (BIOMOL) plus 2 mM nicotinamide were added to all wells to stop the reactions. The reactions were left for at least 30 minutes at 37° C. for the signal to develop. The plates were read in a microplate-reading fluorometer capable of excitation at a wavelength in the range of 350-380 nm and detection of emitted light in the range of 440-460 nm. A read time of 0.1 sec per well was used."}, "recombinant human SIRT1": {"target": "T2, recombinant human SIRT1 (Homo sapiens, UniProt Q96EB6)", "T2 sequence (Q96EB6 1-747)": "T1 sequence (Q96EB6 1-747)", "assay": "SIRT1 fluorescent deacetylation assay (p53-382 acetylated peptide)", "type": "biochemical", "conditions": "25 μM NAD+, 25 μM p53-382 acetylated peptide, compounds at 100 μM", "text": "Lines represent non-linear least-squares fits to the Michaelis-Menten equation. […] Lines represent non-linear least-squares fits to the Michaelis-Menten equation. […] Error bars are standard errors of the mean.\nTo identify compounds that modulate SIRT1 activity, a number of small molecule libraries were screened using a fluorescent deacetylation assay in 96-well plates^26. The substrate used in the assay was a fluorogenic peptide based on the sequence encompassing the p53-K382 acetylation site, a known target of SIRT1 in vivo^20,21,27. […] The small molecule libraries included analogues of nicotinamide, ε-acetyl lysine, NAD^+, nucleotides, nucleotide analogues and purinergic ligands.\nHis6-tagged recombinant SIRT1 and GST-tagged recombinant Sir2 were prepared as previously described^26. From 0.1 to 1 μg of SIRT1 and 1.5 μg of Sir2 were used per deacetylation assay (in 50 μl total reaction) as previously described^26.\nThemed compound libraries (BIOMOL) were used for primary and secondary screening. Most polyphenol compounds were dissolved at 10 mM in dimethylsulfoxide (DMSO) on the day of the assay. For water soluble compounds and negative controls, 1% v/v DMSO was added to the assay. […] Unless otherwise indicated all initial rate measurements were means of three or more replicates, obtained with single incubation times, at which point 5% or less of the substrate initially present had been deacetylated. Calculation of net fluorescence increases included subtraction of a blank value, which in the case of Sir2 was obtained by omitting the enzyme from the reaction and in the case of SIRT1 by adding an inhibitor (200 μM suramin or 1 mM nicotinamide) to the reaction prior to the acetylated substrate. […] All error bars represent the standard error of the mean."}, "[2]": {"test_system": "Experimental autoimmune encephalomyelitis (EAE) in SJL/J mice", "conditions": "FK506 5 mg/kg/day"}, "[3]": {"test_system": "thoracic spinal cord of EAE SJL/J mice", "assay": "EAE spinal cord white matter damage", "type": "in vivo, mouse", "conditions": "FK506 5 mg/kg, significant", "text": "At day 40 post-immunization, mice from each group are sacrificed with an overdose of ketamine/xylazine. Spinal cords are dissected, fixed in 10% buffered formalin, and embedded in paraffin. Five micron thick sections are stained with Hematoxylin and Eosin (H&E) and Luxol Fast Blue (LFB) to assess myelin loss. Bielshowesky's silver impregnation is used to evaluate axonal integrity. To asses the amount of axonal loss, paraffin sections are exposed to monoclonal antibodies against mouse non-phosphorylated neurofilament H (Clone SMI-32, Stemberger Monoclonals, Baltimore, USA) and monoclonal antibodies against APP (Clone 22C11, Chemicon). SMI-32 is detected with a Cy3-labeled antibody and visualized by fluorescence microscopy. Anti-APP antibodies are detected by incubation with ColonoPAP, and APP-positive axons are visualized with 3,3′-diaminobenzidine (DAB).\nThe percentage of the spinal cord showing damage was determined in the cervical, thoracic and lumbar cord. At each level, regions in the 1) dorsal columns and 2) the lateral and ventral white matter tracts containing damaged fibers was circumscribed on photomontages (final magnification ×100) of the entire spinal cord. Damaged areas in each of the two regions were measured using a SummaSketch III (Summagraphics, Seymour, Conn.) digitizing tablet and BIOQUANT Classic 95 software (R&M Biometrics, Nashville, Tenn.). Measurements were also be made of the total area (damaged and nondamaged) of the 1) dorsal columns and 2) the lateral and ventral columns. For each section (one section per animal), the cumulative percent lesion areas were calculated for each region (dorsal column, lateral and ventral columns)."}, "S. cerevisiae": {"test_system": "S. cerevisiae", "assay": "Yeast replicative lifespan", "type": "cell-based", "method": "Average lifespan for wild type, 22.9 generations, quercetin, 23.4; piceatannol. […]\nAll yeast strains were grown at 30° C. in complete yeast extract/bactopeptone, 2.0% (w/v) glucose (YPD) medium except where stated otherwise. Calorie restriction was induced in 0.5% glucose. Synthetic complete (SC) medium consisted of 1.67% yeast nitrogen base, 2% glucose, 40 mg/litre each of auxotrophic markers. SIR2 was integrated in extra copy and disrupted as described^5. Other strains are described elsewhere^26. For cellular deacetylation assays, HeLa S3 cells were used. U20S osteosarcoma and human embryonic kidney (HEK 293) cells were cultured adherently in Dulbecco's Modified Eagle's Medium (DMEM) containing 10% fetal calf serum (FCS) with 1.0% glutamine and 1.0% penecillin/streptomycin. HEK 293 overexpressing dominant negative SIRT1 H363Y was a gift of R. Frye (U. Pittsburgh).\nLifespan measurements were performed using PSY316AT MATα as previously described^35. All compounds for lifespan analyses were dissolved in 95% ethanol and plates were dried and used within 24 hours. Prior to lifespan analysis, cells were pre-incubated on their respective media for at least 15 hours. Following transfer to a new plate, cells were equilibrated on the medium for a minimum of 4 hours prior to micro-manipulating them. At least 30 cells were examined per experiment and each experiment was performed at least twice. Statistical significance of lifespan differences was determined using the Wilcoxon rank sum test. Differences are stated to be significant when the confidence is higher than 95%."}, "HeLa S3 cells": {"test_system": "HeLa S3 cells", "assay": "Cellular deacetylase assay (FdL, TSA-insensitive signal)", "type": "cell-based, human", "conditions": "500 μM compound, 200 μM FdL, 1 μM TSA, 1 hour", "method": "FdL (200 μM) is added to growth media and cells incubated for 1-3 hours to allow FdL to enter the cells and the lysine-deacetylated product (deAc-FdL) to accumulate intracellularly. Cells are lysed with detergent in the presence of 1 μM TSA, 1 mM nicotinamide. Addition of the non-cell-permeable Developer (BIOMOL) releases a fluorophor, specifically from deAc-FdL. b, SIRT1 activating polyphenols can stimulate TSA-insensitive, FdL deacetylation by HeLa S3 cells. Cells were grown adherently in DMEM/10% FCS and treated for 1 hour with 200 μM FdL, 1 μM TSA and either vehicle (0.5% final DMSO, Control) or 500 μM of the indicated compound. Intracellular accumulation of deAc-FdL was then determined as described briefly in a. […] Lysates were prepared and analyzed as above. […]\nThemed compound libraries (BIOMOL) were used for primary and secondary screening. […] In vitro fluorescence assay results were read in white ½-volume 96-well microplates (Coming Costar 3693) with a CytoFluor™. II fluorescence plate reader (PerSeptive Biosystems, Ex. 360 nm, Em. 460 nm, gain=85). HeLa cells were grown and the cellular deacetylation assays were performed and read, as above, but in full-volume 96-well microplates (Coming Costar 3595). […]"}, "[4]": {"target": "p53-382 acetylated peptide (human) (UniProt P04637)"}}, "data": [{"compound": "COc1ccc(/C=C/c2cc(O)cc(O)c2)cc1", "note": "[BML-233, 3,5-Dihydroxy-4′-methoxy-trans-stilbene]", "values": [{"measurement": "% change in C. elegans lifespan relative to untreated organisms", "setting": "C. elegans; (10)", "result": 70, "unit": "%"}, {"measurement": "% change in C. elegans lifespan relative to untreated organisms", "setting": "C. elegans; (500)", "result": 50, "unit": "%"}, {"measurement": "activated SIRT1", "setting": "[1]", "result": 2.1, "unit": "fold"}, {"measurement": "SIRT1 stimulating activity (in words)", "setting": "recombinant human SIRT1", "result": "strong activator of sirtuins"}]}, {"compound": "C=CC[C@@H]1/C=C(\\C)C[C@H](C)C[C@H](OC)[C@H]2O[C@@](O)(C(=O)C(=O)N3CCCC[C@H]3C(=O)O[C@H](/C(C)=C/[C@@H]3CC[C@@H](O)[C@H](OC)C3)[C@H](C)[C@@H](O)CC1=O)[C@H](C)C[C@@H]2OC", "note": "[FK506]", "values": [{"measurement": "Mean EAE Score - Last 10 Days", "setting": "[2]; vehicle 23.00", "result": 7.75}, {"measurement": "Mean total EAE score", "setting": "[2]; vehicle 72.38", "result": 25.38}, {"measurement": "reduction of extent of damage in dorsal, lateral and ventral white matter", "setting": "[3]", "result": "over 90%"}]}, {"compound": "O=C(/C=C/c1ccc(O)c(O)c1)c1ccc(O)cc1O", "note": "[butein, 3,4,2′,4′-Tetrahydroxychalcone]", "values": [{"measurement": "increase of average lifespan", "setting": "S. cerevisiae; 10 μM", "result": 31, "unit": "%"}, {"measurement": "maximum lifespan (in words)", "setting": "S. cerevisiae; 10 μM", "result": "significantly increased maximum lifespan"}, {"measurement": "Average lifespan", "setting": "S. cerevisiae; 10 μM compound, 2% glucose medium, wild type untreated 22.9", "result": 35.5, "unit": "generations"}, {"measurement": "TSA-insensitive cellular deacetylation signal", "setting": "HeLa S3 cells", "result": "no effect on the cellular signal"}]}, {"compound": "His6-tagged recombinant SIRT1 (enzyme)", "values": [{"measurement": "Km for the acetylated peptide (initial deacetylation rate, fluorescence)", "setting": "[4]", "result": 64, "unit": "µM"}]}]}
